Measured values published in paper PMC6273599, “Sesquiterpenoids and Diterpenoids from the Wood of Cunninghamia konishii and Their Inhibitory Activities against NO Production” (Molecules, 2016).
In brackets after ≈: the same amount, converted by molar mass.

Assays:
Assay type in all cases: cell-based, murine
[1] = system: LPS-stimulated RAW 264.7 cells; test: Inhibition of LPS-induced nitric oxide production (Griess nitrite measurement); settings: LPS (100 ng/mL)-stimulated RAW 264.7 cells, 24 h, Griess reaction, mean ± SD of three replicates; for IC50: Mus musculus, RAW264.7, read-out: Inhibition of NO Production IC50
Source text: (§1) Nitric oxide (NO) is derived from the oxidation of L-arginine by NO synthase (NOS) and is recognized as a mediator and regulator in biological actions, especially in inflammatory responses. In inflammation and carcinogenesis conditions, there is an increased production of NO by inducible NO synthase (iNOS). Thus, inhibitors of NO might be of therapeutic importance in preventing pathological conditions catalyzed by inflammation. Macrophages contain various chemical mediators that may be responsible for several inflammatory stages and have been expected to be an origin of inflammation. iNOS mainly exists in macrophages and can be induced by pro-inflammatory agents lipopolysaccharides (LPS). […] In this study, the inhibitory activity toward NO production of four sesquiterpenoids (1, 4, 5, and 6) and eight diterpenoids (8–15) was evaluated by measurement of nitrite/nitrate in LPS-stimulated RAW 264.7 cells. To search for the appropriate concentrations for the above assay, these 12 compounds were first tested their cytotoxic activity against the RAW 264.7 cells, and no significant cytotoxic activities were observed under all tested concentrations (Table 3).
(§2) A murine macrophage cell line RAW264.7 (BCRC No. 60001) was obtained from the Bioresources Collection and Research Center (BCRC) of the Food Industry Research and Development Institute (Hsinchu, Taiwan). Cells were maintained in Dulbecco’s Modified Eagle Medium (DMEM, Sigma, St. Louis, MO, USA) supplemented with 10% fetal bovine serum (FBS, Sigma). Cells were cultured in a humidified atmosphere with 5% CO2 at 37 °C and subcultured every three days at a dilution of 1:5 using 0.05% trypsin-0.02% EDTA in Ca^2+-, Mg^2+-free phosphate-buffered saline (DPBS).
The anti-inflammatory activity of compounds was evaluated by using a nitric oxide (NO) inhibitory activity assay. As a stable NO metabolite, production of NO was indirectly determined by Griess reaction to measure the concentration of nitrite in the culture medium. The cells were incubated with test compounds (0, 2.5, 5, 10, 20 and 40 μg/mL) in the presence of LPS (100 ng/mL) at 37 °C for 24 h. Then, cells were dispensed into 96-well plates, and 100 μL of each supernatant was reacted with an equal volume of Griess reagent (1% sulfanilamide, 0.1% naphthyl ethylenediamine dihydrochloride and 5% phosphoric acid) and incubated at room temperature for 10 min. Absorbance was then measured at 540 nm using a Micro-Reader (Molecular Devices Orleans Drive, Sunnyvale, CA, USA). A standard curve was generated, using freshly prepared 0–100 μM […] dissolved in assay buffer, to quantitate unknown nitrite in samples.
(§3) The data is expressed as means ± standard errors (SE). The IC50 values were calculated from the dose curves using a non-linear regression algorithm (SigmaPlot 8.0; SPSS Inc., Chicago, IL, USA, 2002). Statistical evaluation was carried out by one-way analysis of variance (ANOVA followed by Scheffe’s multiple range tests).

[2] = Cell viability / cytotoxicity (MTT); settings: mouse, RAW 264.7 macrophage cells, RAW 264.7 cells, 24 h with test compound in presence of 100 ng/mL LPS, mean ± SD of three replicates
Source text: as §1, §2
(§4) Cells (2 × 10^5) were cultured in 96-well plate containing DMEM supplemented with 10% FBS. After 24 h of cells incubation, cells were cultured with test compounds in the presence of 100 ng/mL LPS (lipopolysaccharide) for 24 h. Untreated cells served as the control. After that, the cells were washed twice with DPBS and 100 μL of 0.5 mg/mL MTT was added to each well for further 2 h incubation at 37 °C. The medium was then discarded, and the colored crystals of produced formazan were dissolved in 100 μL dimethyl sulfoxide (DMSO). After 30 min incubation, the absorbance was measured at 570 nm on a microplate reader (Molecular Devices).
as §3

RAW 264.7 cells = test: Cell viability / cytotoxicity (MTT); settings: 24 h with test compound in presence of 100 ng/mL LPS, mean ± SD of three replicates
Source text: as §1, §2, §4, §3

Row | SMILES | IC50 [1] [µg/mL] | IC50 at 24 h [2] [µg/mL] | Inhibition of NO Production IC50 [1] [µg/mL] | Cytotoxicity IC50 (RAW 264.7 cells) [µg/mL]
1 | C=CC(C)=CCC1C(=C)CCC2C(C)(CO)CCCC12C (centres unmarked) [Compound 9, elliotinol] | > 20 | > 20 | – | –
2 | CC1CCC2(C)CC3CCC12C(O)C3(C)C (stereo not drawn) [Compound 1, 2α-hydroxy-3,3,6α,9β-tetramethyltricyclo[4,3,2^1,4]undecane] | > 20 | > 20 | – | –
3 | CC(=O)OC(C)(C)C1CCC2(C)CCCC(C)(O)C2C1 (stereo not drawn) [Compound 5, 11-acetoxyeudesman-4α-ol] | – | – | >20 | >20
4 | Cc1ccc(C(C)C)c2c1[C@H](O)[C@@H](O)[C@@H](C)C2 [Compound 6, 2α,3β-dihydroxy-4β-methyl-6,8,10-cadinatriene] | > 20 | > 20 | – | –
5 | CC(=O)OC(C)(C)C1CCC2(C)CCCC(C)(O)C2C1 (stereo not drawn) [Compound 4, 11-acetoxyeudesman-4β-ol] | > 20 | > 20 | – | –
6 | C=C[C@]1(C)C=C2CC[C@@H]3[C@](C)(CCC[C@@]3(C)C(=O)O)[C@H]2CC1 [Compound 8, sandaracopimaric acid] | > 20 | > 20 | – | –

More lines, main results first:

Row | IC50 [1] [µg/mL] | SMILES | IC50 at 24 h [2] [µg/mL] | Inhibition of NO Production IC50 [1] [µg/mL] | Cytotoxicity IC50 (RAW 264.7 cells) [µg/mL]
7 | 11.4 ± 0.62 (≈ 41.1 µM) | CC(=O)C=CC1C(C)(O)CCC2C(C)(C)CCCC21C (stereo not drawn) [Compound 10, 8α-hydroxy-15,16-bisnorlabda-11-en-13-one] | > 20 | – | –
8 | > 20 | C=C1CCC2C(C)(C(=O)O)CCCC2(C)C1CC1OCC=C1C (centres unmarked) [Compound 14] | > 20 | – | –
9 | 13.1 ± 0.55 (≈ 42.4 µM) | C=CC(C)(O)CCC1C(C)(O)CCC2C(C)(C)CCCC21C (centres unmarked) [Compound 15] | > 20 | – | –
10 | > 20 | C=CC(=C)CCC1C(C)(O)CCC2C(C)(C=O)CCCC12C (centres unmarked) [Compound 11] | > 20 | – | –
11 | > 20 | C=CC1(C)OC2(C)CCC3C(C)(CO)CCCC3(C)C2CC1O (centres unmarked) [Compound 13] | > 20 | – | –
12 | > 20 | C=C1CCC2C(C)(CO)CCCC2(C)C1C=CC(C)=O (centres unmarked) [Compound 12] | > 20 | – | –
13 | 65.4 ± 1.8 (≈ 183 µM) | COc1ccc2c(c1)c(CC(=O)O)c(C)n2C(=O)c1ccc(Cl)cc1 [indomethacin, reference compound] | > 100 | – | –
